ChEMBL document CHEMBL5729134, “Apoptosis signal-regulating kinase 1 inhibitors and methods of use thereof” (2022)

What follows are compounds tested against T1, Mitogen-activated protein kinase kinase kinase 5 (Homo sapiens, UniProt Q99683) (assay: HTRF KinEASE Assay : ASK1 was purchased from Thermofisher (Catalogue #PV4011), ATP was purchased from Sigma (Catalogue #A7699), HTRF® KinEASE Assay System was obtained from Cisbio (Bedford, Mass.). ½ Area plate was purchased from Perkin Elmer (Catalogue ##6005560). HTRF® KinEASE-STK is a generic method for measuring serine/threonine kinase activities using a time-resolved fluorescence resonance energy transfer (TR-FRET) immunoassay. The IC50 value for each compound was determined in the presence of compound (various concentration from 0 to 10 μM) and a fixed amount of ATP and peptide substrates. The test compound, 1 μM STK3 peptide substrate, and […] are incubated with kinase reaction buffer containing 50 mM HEPES Ph 7.5, 0.01% BRIJ-35, 10 mM MgCl2, and 1 mM EGTA for 30 minutes. 100 μM ATP is added to start kinase reaction and incubated for 3 hours. The STK3-antibody labeled with Eu3+-Cryptate and 125 nM streptavidin-XL665 are mixed in a single addition with stop reagents provided by the Cisbio kit used to stop the kinase reaction. Fluorescence is detected using an Envision Multilabeled 2014 reader from PerkinElmer. The Fluorescence is measured at 615 nm (Cryptate) and 665 nm (XL665) and a ratio of 665 nm/615 nm is calculated for each well. The resulting TR-FRET is proportional to the phosphorylation level. Staurosporine was used as the positive control. IC50 was determined by Xlfit 5.3.).
T1 sequence (Q99683 whole entry): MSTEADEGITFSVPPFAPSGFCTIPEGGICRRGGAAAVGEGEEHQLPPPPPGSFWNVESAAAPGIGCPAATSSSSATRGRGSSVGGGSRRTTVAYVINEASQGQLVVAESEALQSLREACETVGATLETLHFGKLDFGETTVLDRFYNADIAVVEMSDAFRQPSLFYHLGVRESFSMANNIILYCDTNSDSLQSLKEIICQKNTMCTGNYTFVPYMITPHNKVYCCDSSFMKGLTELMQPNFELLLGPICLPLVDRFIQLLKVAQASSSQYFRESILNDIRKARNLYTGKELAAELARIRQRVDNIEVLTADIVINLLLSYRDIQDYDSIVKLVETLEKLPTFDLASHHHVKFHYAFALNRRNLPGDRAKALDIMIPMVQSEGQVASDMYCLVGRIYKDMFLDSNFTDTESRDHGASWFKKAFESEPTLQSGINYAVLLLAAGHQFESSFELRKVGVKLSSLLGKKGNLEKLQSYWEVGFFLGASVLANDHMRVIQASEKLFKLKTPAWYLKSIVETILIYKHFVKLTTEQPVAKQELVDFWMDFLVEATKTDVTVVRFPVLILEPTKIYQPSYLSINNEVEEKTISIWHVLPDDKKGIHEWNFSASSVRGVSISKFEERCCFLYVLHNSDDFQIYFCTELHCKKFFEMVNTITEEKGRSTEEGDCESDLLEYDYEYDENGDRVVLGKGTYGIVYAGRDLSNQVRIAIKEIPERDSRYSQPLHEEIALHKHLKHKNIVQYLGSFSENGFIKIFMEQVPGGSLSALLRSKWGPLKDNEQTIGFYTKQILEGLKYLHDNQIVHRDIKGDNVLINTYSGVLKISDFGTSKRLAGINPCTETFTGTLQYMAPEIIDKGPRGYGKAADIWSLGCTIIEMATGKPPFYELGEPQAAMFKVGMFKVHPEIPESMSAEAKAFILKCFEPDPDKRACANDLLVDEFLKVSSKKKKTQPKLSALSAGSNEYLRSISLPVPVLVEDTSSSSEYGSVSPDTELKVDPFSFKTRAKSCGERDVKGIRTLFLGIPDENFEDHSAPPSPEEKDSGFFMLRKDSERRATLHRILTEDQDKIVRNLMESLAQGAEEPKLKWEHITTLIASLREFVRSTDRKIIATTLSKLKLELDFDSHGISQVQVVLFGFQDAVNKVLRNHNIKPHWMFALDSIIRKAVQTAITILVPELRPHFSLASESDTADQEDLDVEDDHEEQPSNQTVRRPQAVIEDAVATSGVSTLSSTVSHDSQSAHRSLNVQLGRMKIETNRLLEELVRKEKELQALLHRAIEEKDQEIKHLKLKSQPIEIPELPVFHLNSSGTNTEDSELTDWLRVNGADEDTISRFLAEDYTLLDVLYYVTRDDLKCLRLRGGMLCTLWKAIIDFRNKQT

SMILES | IC50
COc1cc2c(cc1C(=O)Nc1cccc(-c3nnnn3[C@H](C)CO)n1)CN(C(=O)C(C)(C)C)CC2 | < 1.25 nM
COc1cc2c(cc1C(=O)Nc1cccc(-c3nnnn3[C@H](C)CO)n1)CN(C(=O)OCC(F)(F)F)CC2 | 1.25 to 10 nM
COc1cc2c(cc1C(=O)Nc1cccc(-c3nnnn3C(C)C)n1)CN(C(C)C)CC2 | 1.25 to 10 nM
COc1cc2c(cc1C(=O)Nc1cccc(-c3nnnn3C(C)C)n1)CN(S(=O)(=O)CCC(F)(F)F)CC2 | 1.25 to 10 nM
C[C@H](CO)n1cnnc1-c1cccc(NC(=O)c2cc3c(cc2F)CCN(C(=O)c2ccc(F)cc2)C3)n1 | 1.25 to 10 nM
C[C@H](CO)n1cnnc1-c1cccc(NC(=O)c2cc3c(cc2F)CCN(C(=O)N(C)C)C3)n1 | 1.25 to 10 nM
C[C@H](CO)n1cnnc1-c1cccc(NC(=O)c2cc3c(cc2F)CCN(C(=O)OC2CC2)C3)n1 | 1.25 to 10 nM
CC(C)OC(=O)N1CCc2cc(F)c(C(=O)Nc3cccc(-c4nncn4[C@H](C)CO)n3)cc2C1 | < 1.25 nM
C[C@H](CO)n1cnnc1-c1cccc(NC(=O)c2cc3c(cn2)CCN(S(=O)(=O)N(C)C)C3)n1 | < 1.25 nM
COc1cc2c(cc1C(=O)Nc1cccc(-c3nncn3[C@H](C)CO)n1)CN(C(=O)c1ccc(F)cc1)CC2 | 1.25 to 10 nM
COc1cc2c(cc1C(=O)Nc1cccc(-c3nnnn3[C@H](C)CO)n1)CN(C(=O)C[C@H](C)O)CC2 | < 1.25 nM
COc1cc2c(cc1C(=O)Nc1cccc(-c3nncn3C(C)C)n1)CN(S(=O)(=O)C1CC1)CC2 | 1.25 to 10 nM
CC(C)COC(=O)N1CCc2cc(F)c(C(=O)Nc3cccc(-c4nncn4[C@H](C)CO)n3)cc2C1 | 1.25 to 10 nM
COc1cc2c(cc1C(=O)Nc1cccc(-c3nncn3[C@H](C)CO)n1)CN(S(=O)(=O)CCC(F)(F)F)CC2 | < 1.25 nM
COc1cc2c(cc1C(=O)Nc1cccc(-c3nnnn3[C@H](C)CO)n1)CN(C(=O)OC(C)C)CC2 | < 1.25 nM
COc1cc2c(cc1C(=O)Nc1cccc(-c3nnnn3C(C)C)n1)CN(C)CC2 | < 1.25 nM
C[C@H](CO)n1cnnc1-c1cccc(NC(=O)c2cc3c(cc2F)CCN(C(=O)N2CCCC2)C3)n1 | < 1.25 nM
C[C@H](CO)n1cnnc1-c1cccc(NC(=O)c2cc3c(cc2F)CCN(C(=O)C(C)(C)C)C3)n1 | 1.25 to 10 nM
CC(C)n1cnnc1-c1cccc(NC(=O)c2cc3c(cn2)CCN(Cc2ccccn2)C3)n1 | < 1.25 nM
COc1cc2c(cc1C(=O)Nc1cccc(-c3nnnn3[C@H](C)CO)n1)CN(C(C)C)CC2 | < 1.25 nM
COc1cc2c(cc1C(=O)Nc1cccc(-c3nncn3C(C)C)n1)CN(C(=O)N1CCCC1)CC2 | < 1.25 nM
COc1cc2c(cc1C(=O)Nc1cccc(-c3nncn3C(C)C)n1)CN(C(C)C)CC2 | 1.25 to 10 nM

SMILES | IC50
COc1cc2c(cc1C(=O)Nc1cccc(-c3nncn3C(C)C)n1)CN(S(=O)(=O)CCC(F)(F)F)CC2 | 1.25 to 10 nM
CC(C)CN1CCc2cnc(C(=O)Nc3cccc(-c4nncn4[C@H](C)CO)n3)cc2C1 | 1.25 to 10 nM
COc1cc2c(cc1C(=O)Nc1cccc(-c3nnnn3[C@H](C)CO)n1)CN(C(=O)c1cn(C3CC3)cn1)CC2 | 1.25 to 10 nM
C[C@H](CO)n1cnnc1-c1cccc(NC(=O)c2cc3c(cc2F)CCN(C)C3)n1 | 1.25 to 10 nM
CCNC(=O)N1CCc2cc(OC)c(C(=O)Nc3cccc(-c4nncn4[C@H](C)CO)n3)cc2C1 | < 1.25 nM
COc1cc2c(cc1C(=O)Nc1cccc(-c3nncn3[C@H](C)CO)n1)CN(C(=O)C(C)(C)C)CC2 | < 1.25 nM
COc1cc2c(cc1C(=O)Nc1cccc(-c3nnnn3C(C)C)n1)CN(C(=O)OCC(F)(F)F)CC2 | < 1.25 nM
CCOC(=O)N1CCc2cnc(C(=O)Nc3cccc(-c4nncn4[C@H](C)CO)n3)cc2C1 | < 1.25 nM
COc1cc2c(cc1C(=O)Nc1cccc(-c3nnnn3[C@H](C)CO)n1)CN(S(=O)(=O)CCC(F)(F)F)CC2 | 1.25 to 10 nM
C[C@H](CO)n1cnnc1-c1cccc(NC(=O)c2cc3c(cn2)CCN(C(=O)N2CCCC2)C3)n1 | 1.25 to 10 nM
COc1cc2c(cc1C(=O)Nc1cccc(-c3nnnn3[C@H](C)CO)n1)CN(C(=O)C(C)(C)CO)CC2 | 1.25 to 10 nM
COc1cc2c(cc1C(=O)Nc1cccc(-c3nncn3C(C)C)n1)CN(C(=O)OCC(F)(F)F)CC2 | < 1.25 nM
CCNC(=O)N1CCc2cc(OC)c(C(=O)Nc3cccc(-c4nnnn4C(C)C)n3)cc2C1 | < 1.25 nM
COc1cc2c(cc1C(=O)Nc1cccc(-c3nncn3[C@H](C)CO)n1)CN(C(=O)OC(C)(C)C)CC2 | < 1.25 nM
COc1cc2c(cc1C(=O)Nc1cccc(-c3nnnn3C(C)C)n1)CN(C(=O)c1ccc(F)cc1)CC2 | < 1.25 nM
CC(C)N1CCc2cc(F)c(C(=O)Nc3cccc(-c4nncn4[C@H](C)CO)n3)cc2C1 | < 1.25 nM
COc1cc2c(cc1C(=O)Nc1cccc(-c3nncn3[C@H](C)CO)n1)CN(C(C)C)CC2 | < 1.25 nM
COc1cc2c(cc1C(=O)Nc1cccc(-c3nncn3[C@H](C)CO)n1)CN(S(=O)(=O)C1CC1)CC2 | 1.25 to 10 nM
COc1cc2c(cc1C(=O)Nc1cccc(-c3nncn3[C@H](C)CO)n1)CN(C)CC2 | < 1.25 nM
COc1cc2c(cc1C(=O)Nc1cccc(-c3nncn3C(C)C)n1)CN(C)CC2 | < 1.25 nM
CCOC(=O)N1CCc2cc(F)c(C(=O)Nc3cccc(-c4nncn4[C@H](C)CO)n3)cc2C1 | < 1.25 nM
COc1cc2c(cc1C(=O)Nc1cccc(-c3nnnn3[C@H](C)CO)n1)CN(C(=O)N1CCCC1)CC2 | < 1.25 nM

SMILES | IC50
CC(C)n1cnnc1-c1cccc(NC(=O)c2cc3c(cn2)CCN(C(=O)c2ccc(F)cc2)C3)n1 | 1.25 to 10 nM
C[C@H](CO)n1cnnc1-c1cccc(NC(=O)c2cc3c(cc2F)CCN(S(=O)(=O)C2CC2)C3)n1 | < 1.25 nM
CC(C)n1cnnc1-c1cccc(NC(=O)c2cc3c(cc2F)CCN(c2ncccn2)C3)n1 | < 1.25 nM
CCOC(=O)N1CCc2cc(OC)c(C(=O)Nc3cccc(-c4nncn4[C@H](C)CO)n3)cc2C1 | < 1.25 nM
C[C@H](CO)n1cnnc1-c1cccc(NC(=O)c2cc3c(cc2F)CCN(C(=O)OCC(F)(F)F)C3)n1 | < 1.25 nM
C[C@H](CO)n1cnnc1-c1cccc(NC(=O)c2cc3c(cn2)CCN(S(=O)(=O)c2ccccc2)C3)n1 | < 1.25 nM
CCNC(=O)N1CCc2cc(OC)c(C(=O)Nc3cccc(-c4nncn4C(C)C)n3)cc2C1 | < 1.25 nM
CCNC(=O)N1CCc2cc(F)c(C(=O)Nc3cccc(-c4nncn4[C@H](C)CO)n3)cc2C1 | < 1.25 nM
COc1cc2c(cc1C(=O)Nc1cccc(-c3nncn3[C@H](C)CO)n1)CN(C(=O)N1CCCC1)CC2 | < 1.25 nM
C[C@H](CO)n1cnnc1-c1cccc(NC(=O)c2cc3c(cc2F)CCN(C(=O)OCCF)C3)n1 | < 1.25 nM
COc1cc2c(cc1C(=O)Nc1cccc(-c3nnnn3C(C)C)n1)CN(C(=O)C(C)(C)C)CC2 | < 1.25 nM
CCNC(=O)N1CCc2cc(OC)c(C(=O)Nc3cccc(-c4nnnn4[C@H](C)CO)n3)cc2C1 | 1.25 to 10 nM
C[C@H](CO)n1cnnc1-c1cccc(NC(=O)c2cc3c(cc2F)CCN(S(=O)(=O)CCC(F)(F)F)C3)n1 | < 1.25 nM
COc1cc2c(cc1C(=O)Nc1cccc(-c3nncn3C(C)C)n1)CN(C(=O)C(C)(C)C)CC2 | 1.25 to 10 nM
COc1cc2c(cc1C(=O)Nc1cccc(-c3nncn3[C@H](C)CO)n1)CN(C(=O)OCC(F)(F)F)CC2 | 1.25 to 10 nM
COc1cc2c(cc1C(=O)Nc1cccc(-c3nnnn3[C@H](C)CO)n1)CN(C(=O)OCc1ccccc1)CC2 | < 1.25 nM
CCNC(=O)N1CCc2cnc(C(=O)Nc3cccc(-c4nncn4[C@H](C)CO)n3)cc2C1 | 1.25 to 10 nM
COc1cc2c(cc1C(=O)Nc1cccc(-c3nnnn3[C@H](C)CO)n1)CN(S(=O)(=O)C1CC1)CC2 | < 1.25 nM
COc1cc2c(cc1C(=O)Nc1cccc(-c3nnnn3C(C)C)n1)CN(C(=O)N1CCCC1)CC2 | < 1.25 nM
CC(C)n1cnnc1-c1cccc(NC(=O)c2cc3c(cn2)CCN(S(=O)(=O)c2ccccc2)C3)n1 | 1.25 to 10 nM
